Experimental data from patent US10517867B2, “Posaconazole derivative, pharmaceutical composition and use thereof” (priority 2016, dated 2019).
Read-outs that look alike come from different tables or passages of the source.

What was measured:
[1] = In vitro metabolic stability in human plasma; format: in vitro ADME; conditions: human, plasma, 37° C., 10 μM compound, read-out: Human plasma T1/2
In short: (§1)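 Human or rat plasma, preincubated 5 min at 37 °C, or intestinal S9 at 37 °C, spiked from 1 mM stock; triplicates sampled at 1, 2, 5, 15 and 30 min into cold internal standard. HPLC quantitation; half-life by non-compartmental analysis.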

[2] = system: Candida albicans ATCC10231; experiment: Candida albicans vaginitis in mice, intragastric administration; format: in vivo, KM mice; conditions: logarithm of the CFU values, mean ± SD of 20 mice, 20 mg/kg intragastric once a day
[3] = system: Candida albicans ATCC10231; experiment: Systemic fungal infection in mice, intravenous administration; format: in vivo, ICR mice
[4] = In vitro metabolic stability in rat plasma; format: in vitro ADME; conditions: rat, plasma, 37° C., 10 μM compound, read-out: Rat plasma T1/2
In short: as §1

[5] = system: Aspergillus fumigatus AF293; experiment: Lung Aspergillus fumigatus infection in immunosuppressed mice, intravenous administration; conditions: for responders at 20 mg/kg: Aspergillus fumigatus, AF293, in Mus musculus, iv
[6] = In vitro metabolic stability in human intestine S9; format: in vitro ADME; conditions: human, intestinal S9; 37° C., 10 μM compound, 1 mg/mL S9, NADPH regeneration system; read-out: Human intestine S9 T1/2
In short: as §1

[7] = system: Candida albicans ATCC10231; experiment: Systemic fungal infection in mice, intragastric administration; format: in vivo, ICR mice; conditions: Candida albicans, ATCC10231, po
[8] = system: Aspergillus Fumigutus (AF) strains; experiment: Aspergillus fumigatus keratitis in rats, intravenous administration; conditions: 10 mg/kg tail vein once daily for 5 days; mean ± SD of 10 rats
[9] = Solid stability test (stability chamber, HPLC total impurity); format: physicochemical
[10] = In vitro metabolic stability in rat intestine S9; format: in vitro ADME; conditions: rat, intestinal S9, pH 7.4; 37° C., 10 μM compound, 1 mg/mL S9, NADPH regeneration system; read-out: Rat intestine S9 T1/2
In short: as §1

[11] = Determination of solubility in deionized water (HPLC, external standard); conditions: 25 °C, water, thermodynamic from solid

CC[C@@H]([C@H](C)O)n1ncn(-c2ccc(N3CCN(c4ccc(OC[C@@H]5CO[C@@](Cn6c[n+](C(C)OC(=O)N(C)c7ncccc7COC(=O)CN)cn6)(c6ccc(F)cc6F)C5)cc4)CC3)cc2)c1=O (stereo partly drawn) [ST0002]
half-life at 10 µM [1]: 0.78 ± 0.15 min
vaginal fungal load of mice, day 3 ([2]; day 3): 4.18 ± 0.22
vaginal fungal load of mice, day 5 ([2]; day 5): 4.35 ± 0.41
vaginal fungal load of mice, day 7 ([2]; day 7): 3.97 ± 0.47
vaginal fungal load of mice, day 11 ([2]; day 11): 3.05 ± 0.27
responders at 20 mg/kg ([3]; 24 h, read-out: survival rate of mice, day 1): 100%
responders at 20 mg/kg ([3]; 48 h, read-out: survival rate of mice, day 2): 100%
responders at 20 mg/kg ([3]; 72 h, read-out: survival rate of mice, day 3): 100%
responders at 20 mg/kg ([3]; 96 h, read-out: survival rate of mice, day 4): 100%
responders at 20 mg/kg ([3]; 120 h, read-out: survival rate of mice, day 5): 100%
responders at 20 mg/kg ([3]; 144 h, read-out: survival rate of mice, day 6): 90%
responders at 20 mg/kg ([3]; 168 h, read-out: survival rate of mice, day 7): 90%
half-life at 10 µM [4]: 1.12 ± 0.35 min
responders at 20 mg/kg ([5]; 24 h, read-out: survival rate of mice, day 1, 20 mg/kg tail vein once daily for 5 days, day 1): 100%
responders at 20 mg/kg ([5]; 48 h, read-out: survival rate of mice, day 2, 20 mg/kg tail vein once daily for 5 days, day 2): 100%
responders at 20 mg/kg ([5]; 72 h, read-out: survival rate of mice, day 3, 20 mg/kg tail vein once daily for 5 days, day 3): 100%
responders at 20 mg/kg ([5]; 96 h, read-out: survival rate of mice, day 4, 20 mg/kg tail vein once daily for 5 days, day 4): 100%
responders at 20 mg/kg ([5]; 120 h, read-out: survival rate of mice, day 5, 20 mg/kg tail vein once daily for 5 days, day 5): 90%
responders at 20 mg/kg ([5]; 144 h, read-out: survival rate of mice, day 6, 20 mg/kg tail vein once daily for 5 days, day 6): 90%
responders at 20 mg/kg ([5]; 168 h, read-out: survival rate of mice, day 7, 20 mg/kg tail vein once daily for 5 days, day 7): 80%
lung fungal load ([5]; mouse lung tissue, seven days later, 20 mg/kg tail vein once daily for 5 days, mean ± SD): 1.89 ± 0.22 10^4 CFU/ml
half-life at 10 µM [6]: 14.9 ± 3.56 min
responders at 20 mg/kg ([7]; 24 h, read-out: survival rate of mice, day 1, 20 mg/kg intragastric once daily for 5 days, day 1): 100%
responders at 20 mg/kg ([7]; 48 h, read-out: survival rate of mice, day 2, 20 mg/kg intragastric once daily for 5 days, day 2): 100%
responders at 20 mg/kg ([7]; 72 h, read-out: survival rate of mice, day 3, 20 mg/kg intragastric once daily for 5 days, day 3): 90%
responders at 20 mg/kg ([7]; 96 h, read-out: survival rate of mice, day 4, 20 mg/kg intragastric once daily for 5 days, day 4): 80%
responders at 20 mg/kg ([7]; 120 h, read-out: survival rate of mice, day 5, 20 mg/kg intragastric once daily for 5 days, day 5): 80%
responders at 20 mg/kg ([7]; 144 h, read-out: survival rate of mice, day 6, 20 mg/kg intragastric once daily for 5 days, day 6): 70%
responders at 20 mg/kg ([7]; 168 h, read-out: survival rate of mice, day 7, 20 mg/kg intragastric once daily for 5 days, day 7): 70%
Amount of active fungi in cornea at day 7 [8]: 2.37 ± 0.49 10^3 CFU/ml
Total impurity increment in 30 days [9]: 0.63%
half-life at 10 µM [10]: 18.5 ± 4.56 min
solubility at 30 min [11]: 30.8 mg/mL
